Reference: patent US12565476B2, “2,5-disubstituted 3-methyl pyrazines and 2,5,6-trisubstituted 3-methyl pyrazines as allosteric SHP2 inhibitors” (Revolution Medicines, Inc., priority 2016, dated 2026)

Molecular target: SHP2 (Homo sapiens (Human), UniProt Q06124)
Experiment: SHP2 allosteric inhibition assay (DiFMUP prompt fluorescence)
Type: biochemical
Conditions: 0.2 nM SHP2 incubated with 0.5 μM Activating Peptide 1 or 2, surrogate substrate DiFMUP, compound 0.00005-10 μM
Excerpt: Without wishing to be bound by theory, SHP is allosterically activated through binding of bis-tyrosyl-phosphorylated peptides to its Src Homology 2 (SH2) domains. The latter activation step leads to the release of the auto-inhibitory interface of SHP2, which in turn renders the SHP2 protein tyrosine phosphatase (PTP) active and available for substrate recognition and reaction catalysis. The catalytic activity of SHP2 was monitored using the surrogate substrate DiFMUP in a prompt fluorescence assay format.
After 30-60-minutes incubation at 25° C., the surrogate substrate DiFMUP (Invitrogen, Cat #D6567) was added to the reaction and activity was determined by a kinetic read using a microplate reader (Envision, Perkin-Elmer or Spectramax M5, Molecular Devices). The excitation and emission wavelengths were 340 nm and 450 nm, respectively. Initial rates were determined from a linear fit of the data, and the inhibitor dose response curves were analyzed using normalized IC50 regression curve fitting with control based normalization.

IC50 [nM]	Compound
104	Cc1nc(N2CCC(C)(N)CC2)cnc1-c1cccc(Cl)c1Cl [Example 24, 1-(5-(2,3-dichlorophenyl)-6-methylpyrazin-2-yl)-4-methylpiperidin-4-amine]
83	Cc1nc(N2CCC3(CCC[C@H]3N)CC2)cnc1Sc1cccc(Cl)c1Cl [Example 1, (R)-8-(5-((2,3-dichlorophenyl)thio)-6-methylpyrazin-2-yl)-8-azaspiro[4.5]decan-1-amine]
43	Cc1nc(N2CCC3(CCC[C@H]3N)CC2)cnc1-c1cccc(Cl)c1Cl [Example 23, (R)-8-(5-(2,3-dichlorophenyl)-6-methylpyrazin-2-yl)-8-azaspiro[4.5]decan-1-amine]
